Like-named read-outs stand apart in the source and are kept apart here.
System: Shionogi mouse mammary carcinoma cells
Assay: Antiandrogenic activity on DHT-stimulated Shionogi mouse mammary carcinoma cell number
Type: cell-based
Settings: for IC50: Mus musculus; for A = Ki OH-Flu/Ki compound: ratio of Ki of hydroxyflutamide versus tested compound, higher values preferable
[1] = inhibition of DHT-stimulated Shionogi cell number, 10-12 days, read-out: Antiandrogenic activity IC50
[2] = inhibition of DHT-stimulated Shionogi cell number
[3] = read-out: Antiandrogenic activity IC50 (nM)

COc1ccc(-c2ccc(C#N)c(C(F)(F)F)c2)c(Cl)c1 [EM-4190]
IC50 [1]: 162 nM | A = Ki OH-Flu/Ki compound [2]: 0.9

N#Cc1ccc(-c2c(F)cc(F)cc2F)cc1C(F)(F)F [EM-4203]
IC50 [1]: 280 nM | A = Ki OH-Flu/Ki compound [2]: 0.6

N#Cc1ccc(-c2ccc(C#N)c(C(F)(F)F)c2)c(Cl)c1 [EM-4205]
IC50 [3]: 52 nM | A = Ki OH-Flu/Ki compound [2]: 3.0

CN(C)C(=O)Nc1ccc(-c2ccc(C#N)c(C(F)(F)F)c2)cc1 [EM-4206]
IC50 [1]: > 500 nM | A = Ki OH-Flu/Ki compound [2]: <0.2

N#Cc1ccc(-c2ccc(F)c(Cl)c2)cc1C(F)(F)F [EM-4216]
IC50 [1]: > 500 nM | A = Ki OH-Flu/Ki compound [2]: <0.2

CSc1cc(C#N)ccc1-c1ccc(C#N)c(C(F)(F)F)c1 [EM-4227]
IC50 [1]: 121 nM | A = Ki OH-Flu/Ki compound [2]: 1.2

N#Cc1ccc(-c2ccc(F)c([N+](=O)[O-])c2)cc1C(F)(F)F [EM-4230]
IC50 [1]: > 500 nM | A = Ki OH-Flu/Ki compound [2]: <0.2

N#Cc1ccc(-c2ccc(F)cc2[N+](=O)[O-])cc1C(F)(F)F [EM-4234]
IC50 [3]: 43.2 nM | A = Ki OH-Flu/Ki compound [2]: 3.2

CC(=O)Nc1ccc(-c2ccc(C#N)c(C(F)(F)F)c2)cc1 [EM-4243]
IC50 [1]: > 500 nM | A = Ki OH-Flu/Ki compound [2]: <0.2

CS(=O)(=O)Nc1ccc(-c2ccc(C#N)c(C(F)(F)F)c2)cc1 [EM-4244]
IC50 [1]: > 500 nM | A = Ki OH-Flu/Ki compound [2]: <0.2

COc1ccc(-c2ccc(C#N)cc2)cc1C(F)(F)F [EM-4246]
IC50 [1]: > 500 nM | A = Ki OH-Flu/Ki compound [2]: <0.2

N#Cc1ccc(-c2ccc(Cl)c(C(F)(F)F)c2)cc1 [EM-4248]
IC50 [1]: > 500 nM | A = Ki OH-Flu/Ki compound [2]: <0.2

N#Cc1ccc(-c2ccc(F)c(C(F)(F)F)c2)cc1 [EM-4249]
IC50 [1]: > 500 nM | A = Ki OH-Flu/Ki compound [2]: <0.2

N#Cc1ccc(-c2ccc(C#N)c(C(F)(F)F)c2)c([N+](=O)[O-])c1 [EM-4253]
IC50 [1]: > 500 nM | A = Ki OH-Flu/Ki compound [2]: <0.2

CS(=O)(=O)c1cc(C#N)ccc1-c1ccc(C#N)c(C(F)(F)F)c1 [EM-4255]
IC50 [1]: > 500 nM | A = Ki OH-Flu/Ki compound [2]: <0.2

C[C@@](O)(c1cccc(-c2ccc(C#N)c(C(F)(F)F)c2)c1)C(F)(F)F [EM-4264]
IC50 [3]: 54 nM | A = Ki OH-Flu/Ki compound [2]: 1.6

N#Cc1ccc(-c2ccc(C#N)c(F)c2)cc1 [EM-4280]
IC50 [1]: > 500 nM | A = Ki OH-Flu/Ki compound [2]: <0.2

N#Cc1ccc(-c2ccc(C#N)c(Cl)c2)cc1 [EM-4281]
IC50 [1]: 145 nM | A = Ki OH-Flu/Ki compound [2]: 0.6

N#Cc1ccc(-c2ccc(F)cc2F)cc1F [EM-4282]
IC50 [1]: > 500 nM | A = Ki OH-Flu/Ki compound [2]: <0.2

N#Cc1ccc(-c2ccc(F)cc2F)cc1Cl [EM-4283, 3-chloro-2′,4′-difluoro-biphenyl-4-carbonitrile]
IC50 [3]: 37 nM | A = Ki OH-Flu/Ki compound [2]: 2.3

CSc1cc(-c2ccc(C#N)cc2)ccc1C#N [EM-4285]
IC50 [1]: > 500 nM | A = Ki OH-Flu/Ki compound [2]: <0.2

CSc1cc(-c2ccc(F)cc2F)ccc1C#N [EM-4288]
IC50 [1]: 28 nM | A = Ki OH-Flu/Ki compound [2]: 4.4

CS(=O)(=O)c1cc(-c2ccc(F)cc2F)ccc1C#N [EM-4292]
IC50 [1]: > 500 nM | A = Ki OH-Flu/Ki compound [2]: <0.2

N#Cc1ccc(-c2ccc(F)cc2C(F)(F)F)cc1C(F)(F)F [EM-4296]
IC50 [1]: > 500 nM | A = Ki OH-Flu/Ki compound [2]: <0.2

N#Cc1ccc(-c2ccc(C#N)c(C(F)(F)F)c2)c(C(N)=O)c1 [EM-4320]
IC50 [1]: > 500 nM | A = Ki OH-Flu/Ki compound [2]: <0.2

N#Cc1ccc(-c2ccc(Br)c([N+](=O)[O-])c2)cc1 [EM-4338]
IC50 [1]: > 500 nM | A = Ki OH-Flu/Ki compound [2]: <0.2

N#Cc1ccc(-c2ccc(C#N)c([N+](=O)[O-])c2)cc1 [EM-4344]
IC50 [1]: > 500 nM | A = Ki OH-Flu/Ki compound [2]: <0.2

N#Cc1ccc(-c2ccc(F)cc2F)cc1[N+](=O)[O-] [EM-4633]
IC50 [1]: 96 nM | A = Ki OH-Flu/Ki compound [2]: 0.8

N#Cc1ccc(-c2ccc(Br)cc2C(F)(F)F)cc1[N+](=O)[O-] [EM-4792]
IC50 [1]: > 500 nM | A = Ki OH-Flu/Ki compound [2]: <0.2

COc1ccc(-c2c(F)cc(F)cc2F)cc1C(F)(F)F [EM-4833]
IC50 [1]: > 500 nM | A = Ki OH-Flu/Ki compound [2]: <0.2

CCN(CC)C(=O)c1cc(F)ccc1-c1ccc(C#N)c(C(F)(F)F)c1 [EM-4841]
IC50 [1]: > 500 nM | A = Ki OH-Flu/Ki compound [2]: <0.2

CCCCN(CCCC)C(=O)c1cc(F)ccc1-c1ccc(C#N)c(C(F)(F)F)c1 [EM-4844]
IC50 [1]: > 500 nM | A = Ki OH-Flu/Ki compound [2]: <0.2

CCCN(CCC)C(=O)c1cc(F)ccc1-c1ccc(C#N)c(C(F)(F)F)c1 [EM-4845]
IC50 [1]: > 500 nM | A = Ki OH-Flu/Ki compound [2]: <0.2

N#Cc1ccc(-c2ccc(F)cc2C(N)=O)cc1Cl [EM-4849]
IC50 [1]: > 500 nM | A = Ki OH-Flu/Ki compound [2]: <0.2

N#Cc1ccc(-c2c(F)cc(F)cc2F)cc1Cl [EM-4851]
IC50 [1]: > 500 nM | A = Ki OH-Flu/Ki compound [2]: <0.2

CCCNC(=O)c1cc(F)ccc1-c1ccc(C#N)c(C(F)(F)F)c1 [EM-4855]
IC50 [1]: > 500 nM | A = Ki OH-Flu/Ki compound [2]: <0.2

CCCCNC(=O)c1cc(F)ccc1-c1ccc(C#N)c(C(F)(F)F)c1 [EM-4856]
IC50 [1]: > 500 nM | A = Ki OH-Flu/Ki compound [2]: <0.2

N#Cc1ccc(-c2ccc(F)cc2C(=O)Nc2ccccc2)cc1C(F)(F)F [EM-4864]
IC50 [3]: > 500 nM | A = Ki OH-Flu/Ki compound [2]: <0.2

CN(C)C(=O)c1cc(F)ccc1-c1ccc(C#N)c(C(F)(F)F)c1 [EM-4865]
IC50 [1]: > 500 nM | A = Ki OH-Flu/Ki compound [2]: <0.2

CCNC(=O)c1cc(F)ccc1-c1ccc(C#N)c(C(F)(F)F)c1 [EM-4866]
IC50 [1]: > 500 nM | A = Ki OH-Flu/Ki compound [2]: <0.2

N#Cc1ccc(-c2cc([N+](=O)[O-])c(F)cc2F)cc1C(F)(F)F [EM-4867]
IC50 [1]: > 500 nM | A = Ki OH-Flu/Ki compound [2]: <0.2

COc1ccc(-c2ccc(F)cc2F)cc1Br [EM-4871]
IC50 [1]: > 500 nM | A = Ki OH-Flu/Ki compound [2]: <0.2

COc1ccc(-c2ccc(C#N)c(C(F)(F)F)c2)c(C(N)=O)c1 [EM-4905]
IC50 [1]: > 500 nM | A = Ki OH-Flu/Ki compound [2]: <0.2

CCOc1ccc(-c2ccc(C#N)c(C(F)(F)F)c2)c(C(N)=O)c1 [EM-4925]
IC50 [1]: > 500 nM | A = Ki OH-Flu/Ki compound [2]: <0.2

Cc1cc(F)cc([N+](=O)[O-])c1-c1ccc(C#N)c(C(F)(F)F)c1 [EM-4947]
IC50 [1]: > 500 nM | A = Ki OH-Flu/Ki compound [2]: <0.2

N#Cc1ccc(-c2c(F)cc(F)cc2[N+](=O)[O-])cc1C(F)(F)F [EM-4948]
IC50 [1]: > 500 nM | A = Ki OH-Flu/Ki compound [2]: <0.2

CNC(=O)c1cc(F)ccc1-c1ccc(C#N)c(C(F)(F)F)c1 [EM-4961]
IC50 [1]: > 500 nM | A = Ki OH-Flu/Ki compound [2]: <0.2

N#Cc1ccc(-c2ccc(Br)cc2C(N)=O)cc1C(F)(F)F [EM-4979]
IC50 [1]: > 500 nM | A = Ki OH-Flu/Ki compound [2]: <0.2

CN(C)CCN(C)C(=O)c1cc(F)ccc1-c1ccc(C#N)c(C(F)(F)F)c1 [EM-4980]
IC50 [1]: > 500 nM | A = Ki OH-Flu/Ki compound [2]: <0.2

CC(=O)Nc1cc(-c2ccc(C#N)c(C(F)(F)F)c2)c(C(N)=O)cc1F [EM-5002]
IC50 [1]: > 500 nM | A = Ki OH-Flu/Ki compound [2]: <0.2

N#Cc1ccc(-c2cc(NC(=O)c3ccc(Cl)cc3)c(F)cc2C(N)=O)cc1C(F)(F)F [EM-5003]
IC50 [1]: > 500 nM | A = Ki OH-Flu/Ki compound [2]: <0.2

N#Cc1ccc(-c2c(F)cc(F)cc2C(F)(F)F)cc1C(F)(F)F [EM-5004]
IC50 [1]: > 500 nM | A = Ki OH-Flu/Ki compound [2]: <0.2

N#Cc1ccc(-c2ccc(F)cc2C(=O)N2CCCC2)cc1C(F)(F)F [EM-5014]
IC50 [1]: > 500 nM | A = Ki OH-Flu/Ki compound [2]: <0.2

N#Cc1ccc(-c2ccc(F)cc2C(=O)Nc2ccc(F)cc2)cc1C(F)(F)F [EM-5018]
IC50 [1]: > 500 nM | A = Ki OH-Flu/Ki compound [2]: <0.2

N#Cc1ccc(-c2ccc(F)cc2C(=O)Nc2ccncc2)cc1C(F)(F)F [EM-5019]
IC50 [1]: > 500 nM | A = Ki OH-Flu/Ki compound [2]: <0.2

N#Cc1ccc(-c2ccc(F)cc2C(=O)N2CCCCC2)cc1C(F)(F)F [EM-5020]
IC50 [3]: > 500 nM | A = Ki OH-Flu/Ki compound [2]: <0.2

N#Cc1ccc(-c2ccc(F)cc2C(=O)N2CCOCC2)cc1C(F)(F)F [EM-5021]
IC50 [1]: > 500 nM | A = Ki OH-Flu/Ki compound [2]: <0.2

N#Cc1ccc(-c2ccc(F)cc2C(=O)Nc2ccc(F)cc2F)cc1C(F)(F)F [EM-5038]
IC50 [1]: > 500 nM | A = Ki OH-Flu/Ki compound [2]: <0.2

CSc1ccc(NC(=O)c2cc(F)ccc2-c2ccc(C#N)c(C(F)(F)F)c2)cc1 [EM-5082]
IC50 [1]: > 500 nM | A = Ki OH-Flu/Ki compound [2]: <0.2

CN(C)c1ccc(NC(=O)c2cc(F)ccc2-c2ccc(C#N)c(C(F)(F)F)c2)cc1 [EM-5083]
IC50 [1]: > 500 nM | A = Ki OH-Flu/Ki compound [2]: <0.2
